Measured values published in patent publication US20260297060A1, “COMPOUNDS FOR THE DEGRADATION OF MUTANT BRAF” (C4 THERAPEUTICS, INC., priority 2023, published 2026).
Where two headings read alike, the source gives them in different places.

Key:
BRAF V600E = target: T1, BRAF V600E (Homo sapiens, UniProt P15056+Q96SW2, V600E); assay: BRAF V600E HiBiT Degradation Assay; format: cell-based; conditions: for DC50: A375.10 cells, BRAF V600E, 2 hours; for Emax: read-out: HiBiT-Degradation A375.10 BRAF 2 hours Emax, A375.10 cells, BRAF V600E, 2 hours, residual protein remaining
T1 construct: knock-in of the HiBiT tag to the endogenous BRAF V600E locus; host or cells: A375.10 (A375 clonal line, CRISPR HiBiT knock-in at the endogenous BRAF V600E locus)
Summary of the method: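 Endogenous HiBiT knock-in on BRAF V600E in A375 cells (clone A375.10); 11-point half-log series, top 10 μM, 2, 6 or 24 h at 37° C. Lytic HiBiT luminescence, background-subtracted, normalized to DMSO; 4-parameter fit gives DC50, Emax (residual protein) and IP (inflection point).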

[1] = Example 6 pharmacokinetics assay for efficacy study (plasma, liver); format: in vivo, BALB/c nude mice; conditions: mouse, po, p.o., QD × 21 days
Procedure: For efficacy study, compounds were tested in the A375 human melanoma xenografts. Known BRAF inhibitors encorafenib, and dabrafenib were used as positive controls. Encorafenib and dabrafenib were administered to BALB/c nude mice bearing A375 tumors on PG-D1 and dosed PO daily (QD) for 3 weeks. Encorafenib was dosed at 35 mg/kg. Dabrafenib was dosed at 100 mg/kg. Compound 83, Compound 93, Compound 70, and Compound 54 were administered to BALB/c nude mice bearing A375 tumors on PG-DO and dosed PO twice per day (BID) for 3 weeks. Compound 83, Compound 93, Compound 70, and Compound 54 were dosed at 10 mg/kg.
The plasma samples were collected at predetermined time points for PK analysis. The mice were euthanized at predetermined time points post the treatment. The blood samples were collected into the 1.5 mL Eppendorf tubes containing 15 μL of 0.5 M EDTA-K2. And then the anticoagulant blood samples were centrifuged at 2,500 g at 4° C. for 15 minutes. The plasma samples were separated into 2 aliquots. The 1st was used for PK analysis, and the 2nd served as backup. The samples were stored at −80° C. before bioanalysis.
Liver samples were collected at predetermined time points for PK analysis. The left lobe of the liver was dissected out and split into 2 parts. The 1st part was used for PK analysis and the 2nd part served as the backup for the study. The samples were transferred into pre-labeled tubes and quickly froze in liquid nitrogen within 2 minutes after dissection. The samples were stored at −80° C. before bioanalysis.
For efficacy study, the harvested plasma and liver were processed for pharmacokinetics analysis by LC/MS/MS with a concentration range of 2.00-2000 ng/mL for Encorafenib and Dabrafenib in plasma, 0.20-200 ng/mL for Encorafenib and Dabrafenib in liver, 50.0-50000 ng/mL for compound 83 and compound 70 in plasma, 20.0-20000 ng/mL for Compound 93 and Compound 54 in plasma, 5.00-5000 ng/mL for compound 93, compound 83, compound 70 and compound 54 in liver.

[2] = read-out: HiBiT-Degradation A375.10 BRAF 2 hours DC50
[3] = read-out: HiBiT-Degradation A375.10 BRAF 2 hours IP, inflection point

T1 sequence (P15056 whole entry V600E): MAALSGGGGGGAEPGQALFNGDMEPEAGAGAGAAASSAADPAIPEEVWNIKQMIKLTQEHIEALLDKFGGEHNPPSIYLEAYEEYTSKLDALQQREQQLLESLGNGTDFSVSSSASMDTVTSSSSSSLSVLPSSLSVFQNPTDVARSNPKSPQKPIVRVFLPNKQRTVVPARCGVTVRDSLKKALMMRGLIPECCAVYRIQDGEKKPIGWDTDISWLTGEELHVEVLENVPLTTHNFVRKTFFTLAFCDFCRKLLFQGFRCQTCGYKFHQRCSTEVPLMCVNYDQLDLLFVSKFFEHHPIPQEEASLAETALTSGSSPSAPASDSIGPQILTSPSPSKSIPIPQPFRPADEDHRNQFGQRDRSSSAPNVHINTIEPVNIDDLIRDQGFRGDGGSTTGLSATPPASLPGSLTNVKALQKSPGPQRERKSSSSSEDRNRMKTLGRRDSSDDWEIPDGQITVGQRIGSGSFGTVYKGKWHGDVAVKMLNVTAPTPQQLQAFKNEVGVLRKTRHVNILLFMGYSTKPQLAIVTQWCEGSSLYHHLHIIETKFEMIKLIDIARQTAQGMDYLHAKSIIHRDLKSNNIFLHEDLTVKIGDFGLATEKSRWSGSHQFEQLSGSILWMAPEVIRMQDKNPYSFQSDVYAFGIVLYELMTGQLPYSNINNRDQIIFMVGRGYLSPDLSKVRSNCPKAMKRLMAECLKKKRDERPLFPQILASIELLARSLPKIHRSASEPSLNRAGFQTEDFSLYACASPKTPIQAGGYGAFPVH
T1 sequence (Q96SW2 whole entry): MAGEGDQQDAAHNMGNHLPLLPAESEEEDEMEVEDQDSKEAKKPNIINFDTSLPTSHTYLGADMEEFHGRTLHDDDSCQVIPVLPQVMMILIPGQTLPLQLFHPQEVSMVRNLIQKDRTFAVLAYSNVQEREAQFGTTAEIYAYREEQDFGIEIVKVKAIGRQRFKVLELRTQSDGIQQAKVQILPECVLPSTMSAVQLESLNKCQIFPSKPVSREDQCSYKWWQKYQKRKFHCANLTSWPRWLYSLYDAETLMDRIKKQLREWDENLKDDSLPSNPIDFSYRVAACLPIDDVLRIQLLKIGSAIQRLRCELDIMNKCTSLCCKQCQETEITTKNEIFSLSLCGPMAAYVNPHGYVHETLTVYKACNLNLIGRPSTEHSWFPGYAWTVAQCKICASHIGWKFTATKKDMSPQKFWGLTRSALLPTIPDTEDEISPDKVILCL
T1 sequence (Q16531 whole entry partner): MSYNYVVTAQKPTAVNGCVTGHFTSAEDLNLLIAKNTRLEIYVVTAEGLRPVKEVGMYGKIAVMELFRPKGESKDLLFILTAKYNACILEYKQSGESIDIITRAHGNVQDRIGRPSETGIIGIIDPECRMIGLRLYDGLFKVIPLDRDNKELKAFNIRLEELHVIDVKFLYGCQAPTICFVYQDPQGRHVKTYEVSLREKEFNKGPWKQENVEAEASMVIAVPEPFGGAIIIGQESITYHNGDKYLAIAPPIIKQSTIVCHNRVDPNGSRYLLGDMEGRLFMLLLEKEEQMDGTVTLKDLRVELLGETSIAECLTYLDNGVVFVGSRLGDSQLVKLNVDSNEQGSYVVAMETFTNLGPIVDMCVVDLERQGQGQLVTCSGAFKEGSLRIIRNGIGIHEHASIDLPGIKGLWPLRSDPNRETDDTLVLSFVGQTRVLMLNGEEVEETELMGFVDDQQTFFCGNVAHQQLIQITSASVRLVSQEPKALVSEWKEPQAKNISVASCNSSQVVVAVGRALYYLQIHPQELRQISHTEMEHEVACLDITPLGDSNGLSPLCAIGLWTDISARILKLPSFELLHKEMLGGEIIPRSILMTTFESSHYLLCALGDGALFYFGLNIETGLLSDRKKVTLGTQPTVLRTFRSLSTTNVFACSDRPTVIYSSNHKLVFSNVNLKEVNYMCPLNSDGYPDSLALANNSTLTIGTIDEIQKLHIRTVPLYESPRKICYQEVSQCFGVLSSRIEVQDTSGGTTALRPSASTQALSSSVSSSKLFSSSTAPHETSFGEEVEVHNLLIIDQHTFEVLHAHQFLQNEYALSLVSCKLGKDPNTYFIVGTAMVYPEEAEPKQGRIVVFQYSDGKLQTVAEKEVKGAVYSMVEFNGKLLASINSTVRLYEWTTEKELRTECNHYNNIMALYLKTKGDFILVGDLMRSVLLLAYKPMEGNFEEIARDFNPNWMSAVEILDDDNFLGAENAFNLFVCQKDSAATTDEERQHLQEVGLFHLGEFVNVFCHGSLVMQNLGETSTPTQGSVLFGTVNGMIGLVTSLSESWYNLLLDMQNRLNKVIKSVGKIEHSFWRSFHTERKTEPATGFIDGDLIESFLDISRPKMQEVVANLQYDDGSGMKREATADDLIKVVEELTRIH

## CO[C@@H]1CCN(S(=O)(=O)Nc2ccc(F)c(Oc3ccc4ncn(C5CC6(CCN(C7CC8(C7)CN(c7cc9c(cc7F)c(N7CCC(=O)NC7=O)nn9C)C8)CC6)C5)c(=O)c4c3)c2C#N)C1 (stereo partly drawn) [Compound 269, (3R)-N-[2-cyano-3-[3-[7-[2-[3-(2,4-dioxohexahydropyrimidin-1-yl)-5-fluoro-1-methyl-indazol-6-yl]-2-azaspiro[3.3]heptan-6-yl]-7-azaspiro[3.5]nonan-2-yl]-4-oxo-quinazolin-6-yl]oxy-4-fluoro-phenyl]-3-methoxy-pyrrolidine-1-sulfonamide]
BRAF V600E; [2]
  DC50: < 1000 nM
BRAF V600E
  Emax: < 50%
BRAF V600E; [3]
  DC50: < 1000 nM

## CC(C)(C)c1nc(-c2cccc(NS(=O)(=O)c3c(F)cccc3F)c2F)c(-c2ccnc(N)n2)s1 [Dabrafenib, dabrafenib, reference compound]
[1]; liver, 100 mg/kg, read-out: Concentration in Liver (mean ± SEM)
  concentration at 6 h: 216 ± 30.8 ng/g
[1]; plasma, 100 mg/kg, read-out: Concentration in Plasma (mean ± SEM)
  concentration at 6 h: 86.1 ± 15.4 ng/mL

## COC(=O)N[C@@H](C)CNc1nccc(-c2cn(C(C)C)nc2-c2cc(Cl)cc(NS(C)(=O)=O)c2F)n1 [Encorafenib, encorafenib, reference compound]
[1]; liver, 35 mg/kg, read-out: Concentration in Liver (mean ± SEM)
  concentration at 6 h: 481 ± 272 ng/g
[1]; plasma, 35 mg/kg, read-out: Concentration in Plasma (mean ± SEM)
  concentration at 6 h: 992 ± 559 ng/mL

## COC1CN(S(=O)(=O)Nc2ccc(F)c(Oc3ccc4ncn(C5CC6(CCN(C7CC8(C7)CN(c7cc9c(cc7F)c(N7CCC(=O)NC7=O)nn9C)C8)CC6)C5)c(=O)c4c3)c2C#N)C1 (stereo not shown) [Compound 280, N-[2-cyano-3-[3-[7-[2-[3-(2,4-dioxohexahydropyrimidin-1-yl)-5-fluoro-1-methyl-indazol-6-yl]-2-azaspiro[3.3]heptan-6-yl]-7-azaspiro[3.5]nonan-2-yl]-4-oxo-quinazolin-6-yl]oxy-4-fluoro-phenyl]-3-methoxy-azetidine-1-sulfonamide]
BRAF V600E; [2]
  DC50: < 1000 nM
BRAF V600E
  Emax: < 50%
BRAF V600E; [3]
  DC50: < 1000 nM
